From US20260167622A1, “PAN-KRAS DEGRADING AGENT, AND PREPARATION METHOD THEREFOR AND USE THEREOF” (LEADINGTAC PHARMACEUTICAL (SHAOXING) CO., LTD., priority 2022, published 2026)

Assays:
Assay type in all cases: cell-based
[1] = target: T1, KRAS G12C protein in NCI-H358 cells (Homo sapiens, UniProt P01116, G12C); assay: KRAS degradation assay (Western Blot) in NCI-H358 cells; conditions: 24 h
T1 construct: endogenous in cells; host or cells: NCI-H358
Description: (§1) Test Example 5: KRAS G12C, KRAS G12D, KRAS G12V, KRAS G13D, and KRAS WT (Expanded) Degradation Assays
(§2) The degradation effect of the compounds on KRAS was investigated on KRAS G12C mutant human non-small cell lung cancer cell NCI-H358, KRAS G12D mutant human metastatic pancreatic cancer cell AsPc-1, KRAS G12D mutant human lung cancer cell A427, KRAS G12V mutant human colorectal cancer cell SW620, KRAS G12V mutant human lung cancer cell SW900, KRAS G13D mutant human colorectal cancer epithelial cell DLD-1, and KRAS WT human gastric cancer cell MKN-1. The specific procedures were as follows: 0.95 mL of cells were seeded into each well of a 24-well cell culture plate to achieve a cell density of 5×10^5 cells/well; and the cell plate was incubated in an incubator at 37° C. with 5% CO2 overnight. Then 50 μL of the compound solution after dilution was added to each of the wells with the corresponding cells, so that the final concentration of the compound was in a range of 0.03-3000 nM. The final concentration of DMSO was 0.25%. After the compounds were added, the cell plate was incubated in an incubator at 37° C. with 5% CO2 for 24 h. The culture medium in the 24-well cell culture plate was then removed, and the plate was washed twice with 1×PBS (KeyGEN). 120 μL of RIPA (strong) lysis buffer (Beyotime) (supplemented with 1 mM phenylmethylsulfonyl fluoride, a protease inhibitor mixture (Beyotime), and a protease phosphatase inhibitor mixture (Beyotime)) was added to lyse adherent SW900 cells at the bottom of the cell culture plate. After the plate was left to stand on ice for 30 min, the protein lysate in each well was transferred to a 1.5 mL centrifuge tube and centrifuged at 15000 g for 20 min at 4° C. The cell lysate supernatants after centrifugation were cryopreserved in a refrigerator at −80° C. for later use.
(§3) After the samples of the cell lysate supernatants that had been prepared were thawed from the refrigerator at −80° C., the total protein concentrations of the cell lysates were determined using a BCA protein quantification kit (Tiangen). The total protein concentrations of the samples were then adjusted to 0.5 μg/μL with PBS and 5×SDS-PAGE protein loading buffer (Beyotime), and the samples were incubated in a water bath at 100° C. for 15 min. The samples were then incubated in an ice bath for 5 min and centrifuged at 14000 g for 1 min at 4° C., and the supernatants were mixed well as loading samples for the Western Blot assay. The samples were loaded into wells of a 10% precast gel (KeyGEN) with a loading volume of 10 μL (total protein: 5 μg), a sufficient Tris-MOPS-SDS running buffer (Adamas) was added, and then electrophoresis was performed at a constant voltage of 120 V for 55 min. After the electrophoresis, the proteins on the gel were transferred to PVDF membranes at a constant current of 250 mA for 55 min. After the membrane transfer, the PVDF membranes were incubated in 1× Quick Block blocking buffer (Beyotime)at room temperature for 30 min. After the blocking, the PVDF membranes were separately incubated at 4° C. overnight with the KRAS antibody (Abcam) diluted in a ratio of 1:1000 and the β-actin antibody (Abcam) diluted in a ratio of 1:2000 in 5% BSA as the diluent, and then washed with 1×TBST buffer (2.4 g of Tris, 8.8 g of NaCl, 1.5 mL of Tween 20, with pH adjusted to 7.4, with the volume brought to 1 L) 3 times for 10 min/time. The membranes were incubated with a secondary antibody (Abcam) diluted in 5% BSA at room temperature for 2 h, and then washed with 1×TBST buffer 3 times for 10 min/time. Finally, the membranes were incubated with Clarity Western ECL Substrate (BIO-RAD) for 5 min for luminescence and color development, and a ChemiScope 6200 Touch chemiluminescence imaging system (Clinx) was used for color development and protein mapping. Gray value analysis of the protein maps was performed using the chemiluminescence analysis software (Clinx). […]

[2] = target: T2, KRAS G13D protein in DLD-1 cells (Homo sapiens, UniProt P01116, G13D); assay: KRAS degradation assay (Western Blot) in DLD-1 cells; conditions: 24 h
T2 construct: endogenous in cells; host or cells: DLD-1
In short: (§4)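 Compounds were added at final concentrations of 0.03–3000 nM (0.25% DMSO) to overnight-plated cells and left for 24 h. Lysates, equalised by BCA, were immunoblotted for KRAS and β-actin, and DC50 and Dmax were derived from normalised band intensities relative to control.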

[3] = target: T3, KRAS WT (expanded) protein in MKN1 cells (Homo sapiens, UniProt P01116); assay: KRAS degradation assay (Western Blot) in MKN1 cells; conditions: for DC50: 24 h; for Dmax: MKN-1, 24 h
T3 construct: endogenous in cells; host or cells: MKN1 (MKN-1)
Description: as §1, §2, §3

[4] = target: T4, KRAS G12D protein in A427 cells (Homo sapiens, UniProt P01116, G12D); assay: KRAS degradation assay (Western Blot) in A427 cells; conditions: for DC50: 24 h; for Dmax: A-427, 24 h
T4 construct: endogenous in cells; host or cells: A427
Description: as §1, §2, §3

[5] = target: T5, KRAS G12V protein in SW620 cells (Homo sapiens, UniProt P01116, G12V); assay: KRAS degradation assay (Western Blot) in SW620 cells; conditions: for DC50: 24 h; for Dmax: SW-620, 24 h
T5 construct: endogenous in cells; host or cells: SW620
In short: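 After a 24 h treatment spanning 0.03–3000 nM, remaining KRAS protein is quantified by ECL immunoblot against a β-actin internal reference. Degradation is expressed relative to vehicle-treated cells and curve-fitted for DC50 and Dmax.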

[6] = target: T6, KRAS G12D protein in AsPc-1 cells (Homo sapiens, UniProt P01116, G12D); assay: KRAS degradation assay (Western Blot) in AsPc-1 cells; conditions: for DC50: 24 h; for Dmax: ASPC1, 24 h
T6 construct: endogenous in cells; host or cells: AsPc-1
In short: as §4

T2 sequence (P01116 1-188 isoform P01116-2 G13D): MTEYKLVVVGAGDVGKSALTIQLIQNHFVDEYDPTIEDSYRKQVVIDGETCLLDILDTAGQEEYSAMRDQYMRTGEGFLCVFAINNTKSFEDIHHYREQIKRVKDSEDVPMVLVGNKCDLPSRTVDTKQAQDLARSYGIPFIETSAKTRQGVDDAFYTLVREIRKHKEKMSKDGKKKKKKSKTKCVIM
T6 sequence (P01116 1-188 isoform P01116-2 G12D): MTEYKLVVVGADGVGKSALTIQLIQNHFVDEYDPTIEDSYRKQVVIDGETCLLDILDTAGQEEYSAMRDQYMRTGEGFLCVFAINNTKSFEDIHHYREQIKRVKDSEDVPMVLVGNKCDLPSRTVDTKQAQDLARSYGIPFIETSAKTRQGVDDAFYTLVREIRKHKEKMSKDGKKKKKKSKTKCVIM
T4 sequence (P01116 1-188 isoform P01116-2 G12D): as above
T1 sequence (P01116 1-188 isoform P01116-2 G12C): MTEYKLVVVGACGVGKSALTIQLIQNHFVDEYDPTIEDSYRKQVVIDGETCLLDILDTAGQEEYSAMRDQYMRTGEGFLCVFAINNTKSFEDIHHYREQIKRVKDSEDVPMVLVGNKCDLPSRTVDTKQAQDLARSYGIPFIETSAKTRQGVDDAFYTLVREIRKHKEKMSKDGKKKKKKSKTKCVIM
T3 sequence (P01116 1-188 isoform P01116-2): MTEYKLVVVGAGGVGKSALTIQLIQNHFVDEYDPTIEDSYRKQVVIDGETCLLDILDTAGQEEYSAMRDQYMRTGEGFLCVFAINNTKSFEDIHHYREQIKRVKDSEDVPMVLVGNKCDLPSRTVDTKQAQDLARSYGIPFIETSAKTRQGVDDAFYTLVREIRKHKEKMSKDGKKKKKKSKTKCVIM
T5 sequence (P01116 1-188 isoform P01116-2 G12V): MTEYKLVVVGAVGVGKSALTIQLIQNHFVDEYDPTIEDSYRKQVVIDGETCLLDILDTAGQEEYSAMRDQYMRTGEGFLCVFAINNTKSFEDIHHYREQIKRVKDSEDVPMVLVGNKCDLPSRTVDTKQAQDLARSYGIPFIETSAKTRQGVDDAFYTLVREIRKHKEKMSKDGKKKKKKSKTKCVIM

Row | Compound | DC50 [1] | Dmax [1] | DC50 [2] | Dmax [2] | DC50 [3] | Dmax [3] | DC50 [4] | Dmax [4] | DC50 [5] | Dmax [5] | DC50 [6] | Dmax [6]
1 | C#Cc1c(F)ccc2cc(O)cc(-c3ncc4c(N5CCC[C@@](C)(O)C5)nc(OCC5(CN6CCN(CC7CCC8(CC7)CCN(C(=O)c7ccc(Cl)c(N9CCC(=O)NC9=O)c7)CC8)CC6)CC5)nc4c3F)c12 [Example 1, (R)-1-(2-chloro-5-(9-((4-((1-(((7-(8-ethynyl-7-fluoro-3-hydroxynaphthalen-1-yl)-8-fluoro-4-(3-hydroxy-3-methylpiperidin-1-yl)pyrido[4,3-d]pyrimidin-2-yl)oxy)methyl)cyclopropyl)methyl)piperazin-1-yl)methyl)-3-azaspiro[5.5]undecane-3-carbonyl)phenyl)dihydropyrimidine-2,4(1H,3H)-dione] | ≤ 50 nM | 80 to 100% | ≤ 50 nM | 80 to 100% | ≤ 50 nM | 80 to 100% | ≤ 50 nM | 80 to 100% | 2.67 nM | 100% | ≤ 50 nM | 80 to 100%
2 | C#Cc1c(F)ccc2cc(O)cc(-c3ncc4c(N5CCC[C@@](C)(O)C5)nc(OCC5(CN6CCN(CC7CCC8(CC7)CCN(C(=O)c7ccc(C)c(N9CCC(=O)NC9=O)c7)CC8)CC6)CC5)nc4c3F)c12 [Example 6, (R)-1-(5-(9-((4-((1-(((7-(8-ethynyl-7-fluoro-3-hydroxynaphthalen-1-yl)-8-fluoro-4-(3-hydroxy-3-methylpiperidin-1-yl)pyrido[4,3-d]pyrimidin-2-yl)oxy)methyl)cyclopropyl)methyl)piperazin-1-yl)methyl)-3-azaspiro[5.5]undecane-3-carbonyl)-2-methylphenyl)dihydropyrimidine-2,4(1H,3H)-dione] | ≤ 50 nM | 80 to 100% | ≤ 50 nM | 80 to 100% | ≤ 50 nM | 80 to 100% | ≤ 50 nM | 80 to 100% | 3.56 nM | 99.1% | ≤ 50 nM | 80 to 100%
3 | C#Cc1c(F)ccc2cc(O)cc(-c3ncc4c(N5CCC[C@@](C)(O)C5)nc(OCC5(CN6CCN(CC7CCC8(CC7)CCN(C(=O)c7ccc(OC)c(N9CCC(=O)NC9=O)c7)CC8)CC6)CC5)nc4c3F)c12 [Example 7, (R)-1-(5-(9-((4-((1-(((7-(8-ethynyl-7-fluoro-3-hydroxynaphthalen-1-yl)-8-fluoro-4-(3-hydroxy-3-methylpiperidin-1-yl)pyrido[4,3-d]pyrimidin-2-yl)oxy)methyl)cyclopropyl)methyl)piperazin-1-yl)methyl)-3-azaspiro[5.5]undecane-3-carbonyl)-2-methoxyphenyl)dihydropyrimidine-2,4(1H,3H)-dione] | ≤ 50 nM | 80 to 100% | ≤ 50 nM | 80 to 100% | ≤ 50 nM | 80 to 100% | ≤ 50 nM | 80 to 100% | 0.62 nM | 100% | ≤ 50 nM | 80 to 100%
4 | CCc1cccc2cc(O)cc(-c3ncc4c(N5CCC[C@@](C)(O)C5)nc(OCC5(CN6CCN(CC7CCC8(CC7)CCN(C(=O)c7ccc(Cl)c(N9CCC(=O)NC9=O)c7)CC8)CC6)CC5)nc4c3F)c12 [Example 3, (R)-1-(2-chloro-5-(9-((4-((1-(((7-(8-ethyl-3-hydroxynaphthalen-1-yl)-8-fluoro-4-(3-hydroxy-3-methylpiperidin-1-yl)pyrido[4,3-d]pyrimidin-2-yl)oxy)methyl)cyclopropyl)methyl)piperazin-1-yl)methyl)-3-azaspiro[5.5]undecane-3-carbonyl)phenyl)dihydropyrimidine-2,4(1H,3H)-dione] | ≤ 50 nM | 80 to 100% | ≤ 50 nM | 80 to 100% | ≤ 50 nM | 80 to 100% | ≤ 50 nM | 80 to 100% |  |  | ≤ 50 nM | 80 to 100%
